According to PMC11679033, “Assessing the Potential Synergistic/Antagonistic Effects of Citrinin and Cannabidiol on SH-SY5Y, HepG2, HEK293 Cell Lines, and Human Lymphocytes” (Toxins, 2024):
Marks after values point to notes of the source that are not given here.

Columns and labels:
SH-SY5Y cells = assay: Cell membrane integrity (LDH release), SH-SY5Y; format: cell-based, human; conditions: 24 h, CBD 1 μM, CIT 30 μM, alone or combined
Method: Cell membrane integrity was determined after exposure to compounds’ concentrations corresponding to LOAEL concentrations in 24 h by measuring the release of the intracellular lactate dehydrogenase (LDH) and the procedure followed a previously described protocol using The CytoTox-ONE™ Homogeneous Membrane Integrity Assay (Promega, Madison, WI, USA). In short, the cells were seeded in black 96-well plates at a density of 10,000 cells/well one day before the experiment and treated with selected LOAEL concentrations. Triton X-100 at a final concentration of 0.18% (v/v) (stock of 9% in water) was used as a positive control to determine the maximal LDH release. Data were taken from at least two independent experiments (each treatment performed in duplicate or triplicate) and plotted as a percentage of LDH release compared to the determined maximal LDH release, according to the manufacturer’s calculation protocol.

[1] = test system: human peripheral blood lymphocytes; assay: Alkaline comet assay; format: cell-based; conditions: 24 h, CIT 30 µM; for tail intensity, mean value ± SE: CBD 1 µM, bleomycin 1.25 µg/mL
Method: (§1) The experimental design included the establishment of lymphocyte cultures, and the 24 h treatments with the test compounds, performed according to the last OECD recommendations, given in the Test Guideline No. 487—In Vitro Mammalian Cell Micronucleus Test.
(§2) The selection of specific concentrations of test compounds adhered to the guidelines for in vitro genotoxicity testing using comet assay. […] Solutions used in testing were prepared just prior to treatment by dissolving the test compounds in ethanol (Kemika, Zagreb, Croatia).
(§3) Two independent trials, with six experimental groups each, were conducted. A total of six replicate cultures for every single experimental group were established. This step was carried out as follows: aliquots of heparinized blood (V = 600 μL per culture) were pipetted into a growth medium RPMI-1640 (Gibco, Grand Island, NY, USA) supplemented with 10% fetal calf serum (Gibco, Grand Island, NY, USA) and antibiotics (penicillin and streptomycin; Sigma-Aldrich, Steinheim, Germany). Lymphocytes were stimulated with a mitogen phytohemagglutinin (Remel, Lenexa, KS, USA) in order to induce cell division prior to exposure to the test chemicals. Cultures were maintained in the humidified atmosphere of 5% CO2 at 37 °C (Heraeus Hera Cell 240 incubator; Langenselbold, Germany).
(§4) Negative controls (NCs) were non-treated lymphocytes. Solvent controls (SCs) were lymphocytes treated with ethanol (its final concentration in the culture corresponded to 0.03%). Positive controls (PCs) were lymphocytes treated for 24 h with bleomycin at 1.25 µg/mL (according to [69]). The other three groups were lymphocytes exposed to single CIT, single CBD, and their combination (CIT + CBD, at the same concentrations).
(§5) Treatments with test compounds started 20 h after the initial establishment of the cell cultures and lasted for 24 h. Upon completion of the exposure, aliquots of 100 µL of the treated cultures were pipetted in sterile conditions and used to prepare microgels for the alkaline comet assay. The remaining content of flasks was further processed using Cytokinesis-Block Micronucleus Cytome (CBMN Cyt) Assay.

[2] = test system: human peripheral blood lymphocytes; assay: Cytokinesis-Block Micronucleus Cytome (CBMN Cyt) Assay; conditions: 24 h, citrinin 30 µM, CBD 1 µM, bleomycin 1.25 µg/mL; for Distribution of BNMN Cells with 1 MN / Distribution of BNMN Cells with 2 MNi / Distribution of BNMN Cells with 3 MNi / Distribution of BNNB Cells with 1 NB / Distribution of BNNB Cells with 2 NBs / Micronuclei (MNi) and BNMN Cells: Total (BNNB)6000 / Micronuclei (MNi) and BNMN Cells: Total (MNi)6000 / Nuclear Buds (NBs) and BNNB Cells: Total (BNNB)6000 / Nuclear Buds (NBs) and BNNB Cells: Total (NBs)6000 / Nucleoplasmic Bridges (NPBs) and BNNPB Cells: Total (BNNPB)6000 / Nucleoplasmic Bridges (NPBs) and BNNPB Cells: Total (NPBs)6000: in 6000 BN cells; for Cell Death: Total (Apoptosis)6000 / Cell Death: Total (Necrosis)6000: in 6000 cells; for Micronuclei (MNi) and BNMN Cells: Mean (BNMN)1000 ± SD / Micronuclei (MNi) and BNMN Cells: Mean (MNi)1000 ± SD / Nuclear Buds (NBs) and BNNB Cells: Mean (BNNB)1000 ± SD / Nuclear Buds (NBs) and BNNB Cells: Mean (NBs)1000 ± SD / Nucleoplasmic Bridges (NPBs) and BNNPB Cells: Mean (BNNPB)1000 ± SD / Nucleoplasmic Bridges (NPBs) and BNNPB Cells: Mean (NPBs)1000 ± SD: per 1000 BN cells; for Cell Death: Mean (Apoptosis)1000 ± SD / Cell Death: Mean (Necrosis)1000 ± SD: per 1000 cells
Method: as §1, §2, §3, §4, §5
CBMN Cyt Assay was performed according to standard protocols proposed for micronucleus assay. Upon completion of the exposure, lymphocyte cultures were subjected to centrifugation at 100× g using a benchtop centrifuge (ROTOFIX 32A, Hettich, Tuttlingen, Germany). During this process, cells settled to the bottom of the tube. The growth medium with tested compounds was removed by pipetting, discarded and replaced with a fresh amount of complete growth medium RPMI-1640 that contained Cytochalasin B (cytoB; Sigma-Aldrich, Steinheim, Germany) at a final concentration of 6 µg/mL. This procedure was timed to the 44th hour of lymphocyte cultivation, as that time is a critical point for the addition of cytoB to inhibit cytokinesis and obtain binucleated cells. All treated and control cultures were further maintained in the previously described conditions at 37 °C until the end of the 72nd hour of cultivation, as proposed by protocols. Then, the preparation of microscopic slides started, which included harvesting of cells by centrifugation (100× g, ROTOFIX 32A centrifuge, Hettich, Tuttlingen, Germany), followed by hypotonic treatment (0.075 mol/L KCl; Kemika, Zagreb, Croatia), and a new round of centrifugation. The resulting sediments of cells were fixed in several repeating stages with methanol–acetic acid (3:1 v/v; both obtained from Kemika, Zagreb, Croatia) followed by centrifugation. The final lymphocyte suspension was dropped onto clean microscope slides.

[3] = Lymphocyte proliferation / cytotoxicity (CBPI, RI); format: cell-based, human; conditions: human, citrinin 7.50 µg/mL, CBD 3.15 µg/mL, bleomycin 1.25 µg/mL, deduced from RI
Excerpt: (§6) On the same slides, parameters of cell proliferation, cytostasis and cytotoxicity were studied, according to recommendations by OECD 2023 [67]. For that purpose, the numbers of mono-, bi-, tri-, and quadrinuclear cells (i.e., M1, M2, M3, M4) were scored at 400× magnification using a light microscope (Leitz, Oberkochen, Germany). The total number of M1 to M4 cells counted per experimental group was 3000 (i.e., 6 × 500 cells).
(§7) Based on the scored ratios of M1 to M4 cells, the Cytokinesis-Block Proliferation Index (CBPI) was calculated, using the formula: CBPI = [(No. of mononucleated cells) + (2 × No. of binucleated cells) + (3 × No. of multinucleated cells)]/(Total number of cells).
(§8) To establish the relative number of cell cycles per cell during the period of exposure to cytoB in treated compared to control cultures, the Replication Index (RI) was also calculated according to the formula:RI = {[(<No. binucleated cells> + <2 × No. multinucleated cells>)/(Total number of cells in treated culture)]/[(<No. binucleated cells> + <2 × No. multinucleated cells>) […] (Total number of cells in control culture)]} × 100
(§9) Finally, from the obtained values of RI, the cytotoxicity estimate was deduced, as % Cytotoxicity = […].

[4] = test system: human peripheral blood lymphocytes; assay: Lymphocyte proliferation / cytotoxicity (CBPI, RI); format: cell-based; conditions: 24 h, citrinin 7.50 µg/mL, CBD 3.15 µg/mL, bleomycin 1.25 µg/mL; for Cytokinesis-Block Proliferation Index: 3000 cells scored; for Replication Index (%): relative to negative control
Excerpt: as §6, §7, §8, §9

| Compound | cell membrane integrity (LDH release) (SH-SY5Y cells) | tail intensity, mean value ± SE [1] | Distribution of BNMN Cells with 1 MN [2] | Distribution of BNMN Cells with 2 MNi [2] | Distribution of BNMN Cells with 3 MNi [2] | Distribution of BNNB Cells with 1 NB [2] | Distribution of BNNB Cells with 2 NBs [2] | Micronuclei (MNi) and BNMN Cells: Total (BNNB)6000 [2] | Micronuclei (MNi) and BNMN Cells: Total (MNi)6000 [2] | Nuclear Buds (NBs) and BNNB Cells: Total (BNNB)6000 [2] | Nuclear Buds (NBs) and BNNB Cells: Total (NBs)6000 [2] | Nucleoplasmic Bridges (NPBs) and BNNPB Cells: Total (BNNPB)6000 [2] | Nucleoplasmic Bridges (NPBs) and BNNPB Cells: Total (NPBs)6000 [2] | Cell Death: Total (Apoptosis)6000 [2] | Cell Death: Total (Necrosis)6000 [2] | Micronuclei (MNi) and BNMN Cells: Mean (BNMN)1000 ± SD [2] | Micronuclei (MNi) and BNMN Cells: Mean (MNi)1000 ± SD [2] | Nuclear Buds (NBs) and BNNB Cells: Mean (BNNB)1000 ± SD [2] | Nuclear Buds (NBs) and BNNB Cells: Mean (NBs)1000 ± SD [2] | Nucleoplasmic Bridges (NPBs) and BNNPB Cells: Mean (BNNPB)1000 ± SD [2] | further results |
| --- | --- | --- | --- | --- | --- | --- | --- | --- | --- | --- | --- | --- | --- | --- | --- | --- | --- | --- | --- | --- | --- |
| C=C(C)[C@@H]1CCC(C)=C[C@H]1c1c(O)cc(CCCCC)cc1O [CBD, cannabidiol] | not significantly compromised | 1.07 ± 0.08% | 17 | 0 | 0 | 25 ^a | 0 | 17 | 17 | 25 ^a | 25 ^a | 0 | 0 | 19 ^a | 9 | 2.8 ± 0.8 | 2.8 ± 0.8 | 4.2 ± 0.4 ^a | 4.2 ± 0.4 ^a | 0 | Nucleoplasmic Bridges (NPBs) and BNNPB Cells: Mean (NPBs)1000 ± SD [2]: 0; Cell Death: Mean (Apoptosis)1000 ± SD [2]: 3.2 ± 0.8 ^a,b; Cell Death: Mean (Necrosis)1000 ± SD [2]: 1.5 ± 1.0; cytotoxicity at 24 h [3]: 2.86%; Cytokinesis-Block Proliferation Index [4]: 1.96^↓nc, sc; Replication Index (%) [4]: 97.14% |
| CC1=C2C(=CO[C@H](C)[C@H]2C)C(O)=C(C(=O)O)C1=O [CIT, citrinin] | not significantly compromised | 6.56 ± 0.37% | 66 ^a,b,d,e | 5 | 0 | 69 ^a,b,d,e | 5 | 71^a,b,d,e | 74 ^a,b,d,e | 74 ^a,b,d,e | 79 ^a,b,d,e | 4 | 4 | 50 ^a,b,d,e | 45 ^a,b,d,e | 11.7 ± 1.4 ^a,b,d,e | 12.3 ± 1.6 ^a,b,d,e | 12.3 ± 3.1 ^a,b,d,e | 13.2 ± 3.7 ^a,b,d,e | 0.7 ± 0.5 | group median value of tail intensity [1]: below 10%; Nucleoplasmic Bridges (NPBs) and BNNPB Cells: Mean (NPBs)1000 ± SD [2]: 0.7 ± 0.5; Cell Death: Mean (Apoptosis)1000 ± SD [2]: 8.3 ± 1.6 ^a,b,d,e; Cell Death: Mean (Necrosis)1000 ± SD [2]: 7.5 ± 0.8 ^a,b,d,e; cytotoxicity at 24 h [3]: 16.5%; Cytokinesis-Block Proliferation Index [4]: 1.83^↓nc, sc, cbd, &; Replication Index (%) [4]: 83.46% |
